Measurements reported in patent US20160264570A1, “METHOD OF BLOCKING TRANSMISSION OF MALARIAL PARASITE” (THE UNITED STATES OF AMERICA, AS REPRESENTED BY THE …, priority 2013, published 2016).
Like-named read-outs stand apart in the source and are kept apart here.

Experiments:
[1] = test system: Asexual parasites of P. falciparum strain 3D7; assay: SYBR Green viability assay on asexual parasites; assay type: cell-based, Plasmodium falciparum; conditions: Plasmodium falciparum, read-out: Activity against asexual parasites EC50
[2] = test system: P. falciparum strain 3D7 gametocytes; assay: alamarBlue gametocyte viability assay, strain 3D7
HepG2 cells = assay: Cytotoxicity in mammalian HepG2 cell line; conditions: for % Max response: HepG2; for IC50 (μM) in HepG2 cells / IC50 (μM) in HepG2: Inactive = no significant activity at highest tested concentration (46 μM)
[3] = Plasmodium falciparum, 3D7, read-out: Gametocytocidal activity EC50, Table 8
[4] = Plasmodium falciparum, 3D7, read-out: 3D7-IC50
[5] = Homo sapiens, HepG2, read-out: IC50 (μM) in HepG2 cells
[6] = read-out: Gametocyte IC50, mean of at least 3 independent experiments, P. falciparum 3D7 gametocyte
[7] = Plasmodium falciparum, 3D7, read-out: Gametocyte IC50
[8] = Plasmodium falciparum, 3D7, read-out: IC50 against gametocytes

## Nc1ccc(-c2ccc3ncc4[nH]c(=O)n(-c5cccc(C(F)(F)F)c5)c4c3c2)cn1
[1]; 3D7, Table 7
  EC50: 105 nM
[2]; Plasmodium falciparum, 3D7, read-out: Gametocytocidal activity EC50, Table 7
  EC50: 88 nM

## Cc1cc2cnc3ccc(-c4ccc(N)nc4)cc3c2n(-c2cccc(C(F)(F)F)c2)c1=O
[1]; 3D7, Table 8
  EC50: 205 nM
[2]; [3]
  EC50: 46 nM

## CCc1cc2cnc3ccc(-c4ccc(N)nc4)cc3c2n(-c2cccc(C(F)(F)F)c2)c1=O
[1]; 3D7, Table 8
  EC50: 260 nM
[2]; [3]
  EC50: 136 nM

## COc1cccc2c1C(=O)c1c(O)c3c(c(O)c1C2=O)C[C@@](O)(C(=O)CO)C[C@@H]3O[C@H]1C[C@H](N)[C@H](O)[C@H](C)O1 [Adriamycin]
HepG2 cells; Table 4
  % Max response: −35%
  IC50 (μM) in HepG2 cells: Inactive
[2]; [4]
  IC50: 526 nM

## CN(C)C/C=C/C(=O)Nc1cc2c(Nc3ccc(F)c(Cl)c3)ncnc2cc1O[C@H]1CCOC1 [Afatinib]
HepG2 cells; [5]
  IC50: 18.7 µM
HepG2 cells; Table 4
  % Max response: −100%
[2]; [4]
  IC50: 935 nM

## CO[C@H]1/C=C\C=C(/C)C(=O)NC2=CC(=O)C(NCCN(C)C)=C(C[C@@H](C)C[C@H](OC)[C@H](O)[C@@H](C)/C=C(\C)[C@@H]1OC(N)=O)C2=O [Alvespimycin]
HepG2 cells; [5]
  IC50: 0.118 µM
HepG2 cells; Table 4
  % Max response: −94%

## CO[C@H]1O[C@@H]2O[C@@]3(C)CC[C@H]4[C@H](C)CC[C@@H]([C@H]1C)[C@@]24OO3 [Artemether]
HepG2 cells; Table 4
  % Max response: 7%
  IC50 (μM) in HepG2 cells: Inactive

## C[C@@H]1CC[C@H]2[C@@H](C)C(=O)O[C@@H]3O[C@@]4(C)CC[C@@H]1[C@]32OO4 [Artemisinin, artemisinin]
HepG2 cells; Table 4
  % Max response: 18%
  IC50 (μM) in HepG2 cells: Inactive
[2]; [4]
  IC50: 100 nM

## C[C@H]1[C@@H](O)O[C@@H]2O[C@@]3(C)CC[C@H]4[C@H](C)CC[C@@H]1[C@@]24OO3 [Artenimol (DHA)]
HepG2 cells; Table 2
  % Max response: 20%
  IC50 (μM) in HepG2: Inactive
HepG2 cells; Table 4
  % Max response: 20%
  IC50 (μM) in HepG2 cells: Inactive
[2]; [6]
  IC50: 77 nM

## C[C@H]1[C@H](OC(=O)CCC(=O)O)O[C@@H]2O[C@@]3(C)CC[C@H]4[C@H](C)CC[C@@H]1[C@@]24OO3 [Artesunate]
HepG2 cells; Table 4
  % Max response: 18%
  IC50 (μM) in HepG2 cells: Inactive

## CC(C)C[C@H](NC(=O)[C@H](Cc1ccccc1)NC(=O)c1cnccn1)B(O)O [Bortezomib]
HepG2 cells; [5]
  IC50: 0.148 µM
HepG2 cells; Table 4
  % Max response: −82%
[2]; [4]
  IC50: 100 nM

## CC(C)C[C@H](NC(=O)[C@H](CCc1ccccc1)NC(=O)CN1CCOCC1)C(=O)N[C@@H](Cc1ccccc1)C(=O)N[C@@H](CC(C)C)C(=O)[C@@]1(C)CO1 [Carfilzomib]
HepG2 cells; [5]
  IC50: 1.18 µM
HepG2 cells; Table 4
  % Max response: −79%

## S=C(SSC(=S)N1CCCCC1)N1CCCCC1 [Dicyclopentamethylene-thiuram disulfide, reference compound]
[2]; [7]
  IC50: 274 nM

## S=C(SSC(=S)N1CCCCC1)N1CCCCC1 [Dicyclopentamethylenethiram disulfide]
HepG2 cells; Table 2
  % Max response: 0%
  IC50 (μM) in HepG2: Inactive
HepG2 cells; Table 4
  % Max response: 0%
  IC50 (μM) in HepG2 cells: Inactive

## c1ccc2c(c1)[I+]c1ccccc1-2 [Diphenyleneiodonium]
[2]; [4]
  IC50: 100 nM

## [O-][n+]1ccccc1SSc1cccc[n+]1[O-] [Dipyrithione]
HepG2 cells; [5]
  IC50: 10.8 µM
HepG2 cells; Table 4
  % Max response: −93%
[2]; [4]
  IC50: 200 nM

## CN(NC(=O)CC(=O)NN(C)C(=S)c1ccccc1)C(=S)c1ccccc1 [Elesclomol, elesclomol, reference compound]
[2]; [7]
  IC50: 6 nM

## CO[C@@H]1[C@@H](OC)[C@H](C)[C@@](O)(CC(=O)O)O[C@H]1[C@H](C)[C@H]1O[C@@]2(CC[C@@](C)([C@H]3CC[C@@](C)([C@@H]4O[C@@H]([C@H]5O[C@](C)(O)[C@H](C)C[C@@H]5C)C[C@@H]4O[C@@H]4C[C@H](OC)[C@@H](OC)[C@H](C)O4)O3)O2)C[C@H](O)[C@H]1C [Maduramicin]
HepG2 cells; Homo sapiens, HepG2, read-out: % Max response
  Emax: -42%
HepG2 cells; Homo sapiens, HepG2, read-out: IC50 (μM) in HepG2
  IC50: 37.2 µM
HepG2 cells; [5]
  IC50: 37.2 µM
[2]; [7]
  IC50: 47 nM
[2]; [8]
  IC50: 3 to 50 nM

## OC(c1cc(C(F)(F)F)nc2c(C(F)(F)F)cccc12)C1CCCCN1 (stereo not drawn) [Mefloquine, mefloquine]
HepG2 cells; [5]
  IC50: 29.6 µM
HepG2 cells; Table 4
  % Max response: −97%

## CCNC(=O)c1noc(-c2cc(C(C)C)c(O)cc2O)c1-c1ccc(CN2CCOCC2)cc1 [NVP-AUY922]
HepG2 cells; [5]
  IC50: 0.148 µM
HepG2 cells; Table 4
  % Max response: −88%
[2]; [8]
  IC50: 3 to 50 nM

## CC[C@@H](C(=O)O)[C@@H]1O[C@@H]([C@@H](C)[C@H](O)[C@H](C)C(=O)[C@H](CC)[C@H]2O[C@]3(C=C[C@@H](O)[C@]4(CC[C@@](C)([C@H]5CC[C@](O)(CC)[C@H](C)O5)O4)O3)[C@H](C)C[C@@H]2C)[C@@H](C)C[C@@H]1C [Narasin]
HepG2 cells; [5]
  IC50: 27 µM
HepG2 cells; Table 4
  % Max response: −98%
[2]; [8]
  IC50: 3 to 50 nM

## COC(=O)C[C@](O)(CCCC(C)(C)O)C(=O)O[C@@H]1C(OC)=C[C@]23CCCN2CCc2cc4c(cc2[C@H]13)OCO4 [Omacetaxine]
HepG2 cells; Table 2
  % Max response: −27%
  IC50 (μM) in HepG2: Curve not complete
HepG2 cells; Table 4
  % Max response: −27%
  IC50 (μM) in HepG2 cells: Curve not complete
[2]; [6]
  IC50: 83 nM

## O=C1C(=O)c2ncccc2-c2cccnc21 [Phanquinone]
HepG2 cells; Table 4
  % Max response: 23%
  IC50 (μM) in HepG2 cells: Inactive
[2]; [4]
  IC50: 100 nM

## COc1ccc(C[C@H](N)C(=O)N[C@H]2[C@@H](O)[C@H](n3cnc4c(N(C)C)ncnc43)O[C@@H]2CO)cc1 [Puromycin]
HepG2 cells; [5]
  IC50: 11.8 µM
HepG2 cells; Table 4
  % Max response: −71%
[2]; [4]
  IC50: 1050 nM

## CN(C)C(=S)SSC(=S)N(C)C [Thiram]
HepG2 cells; Table 4
  % Max response: 23%
  IC50 (μM) in HepG2 cells: Inactive

## CC(=O)Nc1cccc(-n2c(=O)n(C3CC3)c(=O)c3c(Nc4ccc(I)cc4F)n(C)c(=O)c(C)c32)c1 [Trametinib]
HepG2 cells; Table 4
  % Max response: 14%
  IC50 (μM) in HepG2 cells: Inactive

## COCCn1c2c([n+](Cc3cnccn3)c1C)C(=O)c1ccccc1C2=O [YM155]
HepG2 cells; [5]
  IC50: 4.69 µM
HepG2 cells; Table 4
  % Max response: −92%
[2]; [4]
  IC50: 372 nM
